The text below walks through data of patent US11311520B2, “Substituted dihydroimidazopyridinediones as MKNK1 and MKNK2 inhibitors” (Bayer Pharma Aktiengesellschaft, priority 2017, dated 2022).

For this experiment, the target named is human full-length MKNK1 (Homo sapiens (Human), UniProt Q9BUB5, T344D). Nature of the experiment: MKNK1 kinase high ATP assay (TR-FRET). Format: biochemical. The following applies: 2 mM ATP, 15 min preincubation with enzyme, GST-MKNK1 (T344D). Summed up: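 GST-tagged full-length human MKNK1 (1-424, T344D, baculovirus-expressed) preincubated 15 min at 22 °C with compound, then reacted 30 min at 22 °C with 2 mM ATP and 0.06 μM biotinylated peptide (final) in HEPES pH 7.5. Phospho-substrate by TR-FRET (665/622 nm ratio), normalised to no-inhibitor and no-enzyme controls.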
human full-length MKNK1, sequence (Q9BUB5 other isoform, or with tags, fused parts or gaps T344D): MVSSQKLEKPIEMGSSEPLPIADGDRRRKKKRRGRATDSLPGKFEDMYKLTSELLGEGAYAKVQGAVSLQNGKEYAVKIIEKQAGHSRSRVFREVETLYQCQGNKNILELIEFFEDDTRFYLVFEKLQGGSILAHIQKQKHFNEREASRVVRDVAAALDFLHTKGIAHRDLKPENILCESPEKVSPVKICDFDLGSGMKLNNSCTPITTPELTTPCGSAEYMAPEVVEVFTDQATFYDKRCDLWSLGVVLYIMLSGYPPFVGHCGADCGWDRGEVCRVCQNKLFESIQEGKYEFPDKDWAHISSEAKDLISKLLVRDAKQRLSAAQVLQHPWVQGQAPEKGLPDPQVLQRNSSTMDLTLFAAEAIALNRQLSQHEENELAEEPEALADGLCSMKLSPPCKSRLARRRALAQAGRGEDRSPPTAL

Compound `Cc1cc(Nc2ncnc3[nH]cnc23)c(=O)n2c1C(=O)NC2(C)C` [Example 134, 3,3,8-Trimethyl-6-(9H-purin-6-ylamino)-2,3-dihydroimidazo[1,5-a]pyridine-1,5-dione] gave an IC50 of 5.8 nM. Turning to `Cc1cc(Nc2ncnc3c2CN(S(=O)(=O)c2ccccc2)C3)c(=O)n2c1C(=O)NC21CCCCC1` [Example 70, 8′-methyl-6′-{[6-(phenylsulfonyl)-6,7-dihydro-5H-pyrrolo[3,4-d]pyrimidin-4-yl]amino}-2′H-spiro[cyclohexane-1,3′-imidazo[1,5-a]pyridine]-1′,5′-dione], half-maximal inhibition (IC50) required 21.7 nM. Then `Cc1cc(Nc2ccnc3ccccc23)c(=O)n2c1C(=O)NC21CCCCC1` [Example 4, 8′-Methyl-6′-(quinolin-4-ylamino)-2′H-spiro[cyclohexane-1,3′-imidazo[1,5-a]pyridine]-1′,5′-dione], with 306 nM; and `Cc1cc(Nc2ccnc3[nH]ccc23)c(=O)n2c1C(=O)NC21CCCCC1` [Example 22, 8′-Methyl-6′-(1H-pyrrolo[2,3-b]pyridin-4-ylamino)-2′H-spiro[cyclohexane-1,3′-imidazo[1,5-a]pyridine]-1′,5′-dione], with 12.3 nM; and `Cc1cc(Nc2ncnc3cccc(C)c23)c(=O)n2c1C(=O)NC21CS(=O)(=O)C1` [Example 179, 8-methyl-6-[(5-methylquinazolin-4-yl)amino]-2H-spiro[imidazo[1,5-a]pyridine-3,3′-thietane]-1,5-dione 1′,1′-dioxide], with 124 nM. The compound `Cc1cc(Nc2ncnc3sccc23)c(=O)n2c1C(=O)NC21CSC1` [Example 177, 8-methyl-6-[(thieno[2,3-d]pyrimidin-4-yl)amino]-2H-spiro[imidazo[1,5-a]pyridine-3,3′-thietane]-1,5-dione] showed an IC50 of 4.3 nM. In the case of `Cc1cc(Nc2ncnc3c2ncn3CC(C)O)c(=O)n2c1C(=O)NC21CCCCC1` (racemic) [Example 39, (RS)-6′-{[9-(2-Hydroxypropyl)-9H-purin-6-yl]amino}-8′-methyl-2′H-spiro[cyclohexane-1,3′-imidazo[1,5-a]pyridine]-1′,5′-dione], 744 nM corresponded to half-maximal inhibition (IC50). Compound `Cc1cc(Nc2ncnc3sc(C(=O)N4CC(NC(=O)OC(C)(C)C)C4)cc23)c(=O)n2c1C(=O)NC2(C)C` [Example 139, tert-Butyl [1-({4-[(3,3,8-trimethyl-1,5-dioxo-1,2,3,5-tetrahydroimidazo[1,5-a]pyridin-6-yl)amino]thieno[2,3-d]pyrimidin-6-yl}carbonyl)azetidin-3-yl]carbamate] returned an IC50 of 24.1 nM.

As to `Cc1cc(Nc2ncnc3ccccc23)c(=O)n2c1C(=O)NC21CCCCC1` [Example 8, 8′-Methyl-6′-(quinazolin-4-ylamino)-2′H-spiro[cyclohexane-1,3′-imidazo[1,5-a]pyridine]-1′,5′-dione], the IC50 is 28.3 nM. Consider `Cc1cc(Nc2ncnc3sc(C(=O)N4CC(NC(=O)OC(C)(C)C)C4)cc23)c(=O)n2c1C(=O)NC21CCC1` [Example 153, tert-Butyl [1-({4-[(8′-methyl-1′,5′-dioxo-1′,5′-dihydro-2′H-spiro[cyclobutane-1,3′-imidazo[1,5-a]pyridin]-6′-yl)amino]thieno[2,3-d]pyrimidin-6-yl}carbonyl)azetidin-3-yl]carbamate], for which inhibition was half-maximal at 5.3 nM (IC50).

Compound `Cc1cc(Nc2ncnc3sc(C(=O)O)cc23)c(=O)n2c1C(=O)NC21CCC1` [Example 150, 4-[(8′-Methyl-1′,5′-dioxo-1′,5′-dihydro-2′H-spiro[cyclobutane-1,3′-imidazo[1,5-a]pyridin]-6′-yl)amino]thieno[2,3-d]pyrimidine-6-carboxylic acid] displayed an IC50 of 18.5 nM. `Cc1cc(Nc2ncnc3sc(C(=O)O)c(C)c23)c(=O)n2c1C(=O)NC21CCC(F)(F)CC1` [Example 93, 4-[(4,4-Difluoro-8′-methyl-1′,5′-dioxo-1′,5′-dihydro-2′H-spiro[cyclohexane-1,3′-imidazo[1,5-a]pyridin]-6′-yl)amino]-5-methylthieno[2,3-d]pyrimidine-6-carboxylic acid] showed an IC50 of 42 nM. Next, `Cc1cc(Nc2ncnc3scnc23)c(=O)n2c1C(=O)NC2(C)C` [Example 164, 3,3,8-Trimethyl-6-([1,3]thiazolo[5,4-d]pyrimidin-7-ylamino)-2,3-dihydroimidazo[1,5-a]pyridine-1,5-dione]: 383 nM; `Cc1cc(Nc2ncnc3c2ncn3CC(=O)N(C)C)c(=O)n2c1C(=O)NC21CCCCC1` [Example 49, N,N-Dimethyl-2-{6-[(8′-methyl-1′,5′-dioxo-1′,5′-dihydro-2′H-spiro[cyclohexane-1,3′-imidazo[1,5-a]pyridin]-6′-yl)amino]-9H-purin-9-yl}acetamide]: 490 nM. `Cc1cc(Nc2ncnc3sc(C(=O)N4CCC(N(C)C)CC4)cc23)c(=O)n2c1C(=O)NC21CCC(F)(F)CC1` [Example 87, 6′-[(6-{[4-(Dimethylamino)piperidin-1-yl]carbonyl}thieno[2,3-d]pyrimidin-4-yl)amino]-4,4-difluoro-8′-methyl-2′H-spiro[cyclohexane-1,3′-imidazo[1,5-a]pyridine]-1′,5′-dione] came in with a concentration for half-maximal inhibition (IC50) of 23.1 nM. As to `CCNC(=O)N1Cc2ncnc(Nc3cc(C)c4n(c3=O)C3(CCCCC3)NC4=O)c2C1` [Example 75, N-Ethyl-4-[(8′-methyl-1′,5′-dioxo-1′,5′-dihydro-2′H-spiro[cyclohexane-1,3′-imidazo[1,5-a]pyridin]-6′-yl)amino]-5,7-dihydro-6H-pyrrolo[3,4-d]pyrimidine-6-carboxamide], the IC50 amounted to 11.9 nM. The compound `Cc1cc(Nc2ncnc3cccc(C)c23)c(=O)n2c1C(=O)NC21CCCCC1` [Example 123, 8′-Methyl-6′-[(5-methylquinazolin-4-yl)amino]-2′H-spiro[cyclohexane-1,3′-imidazo[1,5-a]pyridine]-1′,5′-dione] yielded an IC50 of 9.7 nM. Then `CC(=O)N1Cc2ncnc(Nc3cc(C)c4n(c3=O)C3(CCCCC3)NC4=O)c2C1` [Example 78, 6′-[(6-Acetyl-6,7-dihydro-5H-pyrrolo[3,4-d]pyrimidin-4-yl)amino]-8′-methyl-2′H-spiro[cyclohexane-1,3′-imidazo[1,5-a]pyridine]-1′,5′-dione], with 37.9 nM. Turning to `Cc1cc(Nc2ncnc(N)n2)c(=O)n2c1C(=O)N[C@]21CC[C@@](O)(C(F)(F)F)CC1` [Example 190, (cis)-6′-[(4-amino-1,3,5-triazin-2-yl)amino]-4-hydroxy-8′-methyl-4-(trifluoromethyl)-2′H-spiro[cyclohexane-1,3′-imidazo[1,5-a]pyridine]-1′,5′-dione], the IC50 is 31.4 nM. `Cc1cc(Nc2ncnc3sccc23)c(=O)n2c1C(=O)NC2(C)C` [Example 135, 3,3,8-Trimethyl-6-(thieno[2,3-d]pyrimidin-4-ylamino)-2,3-dihydroimidazo[1,5-a]pyridine-1,5-dione] came in with an IC50 of 19.8 nM.

Consider `Cc1cc(Nc2ncnc3sc(C(=O)N4CC(C#N)C4)cc23)c(=O)n2c1C(=O)NC21CCC(F)(F)CC1` [Example 85, 1-({4-[(4,4-Difluoro-8′-methyl-1′,5′-dioxo-1′,5′-dihydro-2′H-spiro[cyclohexane-1,3′-imidazo[1,5-a]pyridin]-6′-yl)amino]thieno[2,3-d]pyrimidin-6-yl}carbonyl)azetidine-3-carbonitrile], for which half-maximal inhibition (IC50) was put at 25.2 nM. As to `Cc1cc(Nc2ncnc3sc(C(=O)N4CC(N)C4)cc23)c(=O)n2c1C(=O)NC2(C)C` [Example 140, 6-({6-[(3-Aminoazetidin-1-yl)carbonyl]thieno[2,3-d]pyrimidin-4-yl}amino)-3,3,8-trimethyl-2,3-dihydroimidazo[1,5-a]pyridine-1,5-dione], it took 22.3 nM to reach half-maximal inhibition (IC50). In the case of `Cc1cc(Nc2ncnc3scnc23)c(=O)n2c1C(=O)NC21CCCCC1` [Example 51, 8′-Methyl-6′-([1,3]thiazolo[5,4-d]pyrimidin-7-ylamino)-2′H-spiro[cyclohexane-1,3′-imidazo[1,5-a]pyridine]-1′,5′-dione], the IC50 turned out to be 2.9 nM. Then `Cc1cc(Nc2ncnc3cccc(C)c23)c(=O)n2c1C(=O)NC21CCC1` [Example 170, 8′-methyl-6′-[(5-methylquinazolin-4-yl)amino]-2′H-spiro[cyclobutane-1,3′-imidazo[1,5-a]pyridine]-1′,5′-dione], with 5.3 nM; and `Cc1cc(Nc2ncnc3sc(C(=O)N4CCC(N(C)C)CC4)cc23)c(=O)n2c1C(=O)NC21CCCCC1` [Example 14, 6′-[(6-{[4-(Dimethylamino)piperidin-1-yl]carbonyl}thieno[2,3-d]pyrimidin-4-yl)amino]-8′-methyl-2′H-spiro[cyclohexane-1,3′-imidazo[1,5-a]pyridine]-1′,5′-dione], with 4.1 nM; and `Cc1cc(Nc2ncnc3c(F)c(F)ccc23)c(=O)n2c1C(=O)NC21CCCCC1` [Example 115, 6′-[(7,8-Difluoroquinazolin-4-yl)amino]-8′-methyl-2′H-spiro[cyclohexane-1,3′-imidazo[1,5-a]pyridine]-1′,5′-dione], with 208 nM. Compound `Cc1cc(Nc2ncnc3sc(C(=O)N4CC[C@@H](N(C)C)C4)cc23)c(=O)n2c1C(=O)NC21CCCC1` [Example 63, 6′-[(6-{[(3R)-3-(Dimethylamino)pyrrolidin-1-yl]carbonyl}thieno[2,3-d]pyrimidin-4-yl)amino]-8′-methyl-2′H-spiro[cyclopentane-1,3′-imidazo[1,5-a]pyridine]-1′,5′-dione] returned an IC50 of 3.8 nM.

Compound `COc1cc2ncnc(Nc3cc(C)c4n(c3=O)C3(CCCCC3)NC4=O)c2cc1OC` [Example 119, 6′-[(6,7-Dimethoxyquinazolin-4-yl)amino]-8′-methyl-2′H-spiro[cyclohexane-1,3′-imidazo[1,5-a]pyridine]-1′,5′-dione] displayed an IC50 of 3 nM. Next, `Cc1cc(Nc2ncnc3sccc23)c(=O)n2c1C(=O)NC21CCCC1` [Example 56, 8′-Methyl-6′-(thieno[2,3-d]pyrimidin-4-ylamino)-2′H-spiro[cyclopentane-1,3′-imidazo[1,5-a]pyridine]-1′,5′-dione]: 0.1 nM.
